{"source": "ChEMBL document CHEMBL1157738", "about": "“Simocyclinone D8 turns on against Gram-negative bacteria in a clinical setting” (2010)", "format_in_all_cases": "functional", "key": {"Klebsiella pneumoniae [1]": {"tested_on": "Klebsiella pneumoniae", "assay": "Antibacterial activity against Klebsiella pneumoniae isolate 91 after 24 hrs by twofold serial dilution method", "settings": "Klebsiella pneumoniae, isolate 91, 24 h"}, "Klebsiella pneumoniae [2]": {"tested_on": "Klebsiella pneumoniae", "assay": "Antibacterial activity against Klebsiella pneumoniae isolate 110 expressing qnr B19 gene, GyrA D87G mutant after 24 hrs by twofold serial dilution method", "settings": "isolate 110, 24 h"}, "Escherichia coli [3]": {"tested_on": "Escherichia coli", "assay": "Antibacterial activity against Escherichia coli isolate 24 after 24 hrs by twofold serial dilution method", "settings": "Escherichia coli, isolate 24, 24 h"}, "Klebsiella pneumoniae [4]": {"tested_on": "Klebsiella pneumoniae", "assay": "Antibacterial activity against Klebsiella pneumoniae isolate 328 expressing qnr B19 gene, GyrA D87G mutant after 24 hrs by twofold serial dilution method", "settings": "isolate 328, 24 h"}, "Klebsiella pneumoniae [5]": {"tested_on": "Klebsiella pneumoniae", "assay": "Antibacterial activity against Klebsiella pneumoniae isolate 172 expressing qnr B19 gene, GyrA D87G mutant after 24 hrs by twofold serial dilution method", "settings": "isolate 172, 24 h"}, "Escherichia coli [6]": {"tested_on": "Escherichia coli", "assay": "Antibacterial activity against Escherichia coli isolate 9 expressing qnr B19 gene, GyrA D87G, ParC S80I mutant after 24 hrs by twofold serial dilution method", "settings": "isolate 9, 24 h"}, "Escherichia coli [7]": {"tested_on": "Escherichia coli", "assay": "Antibacterial activity against Escherichia coli isolate 85 expressing GyrA S83L mutant after 24 hrs by twofold serial dilution method", "settings": "isolate 85, 24 h"}, "Escherichia coli [8]": {"tested_on": "Escherichia coli", "assay": "Antibacterial activity against Escherichia coli isolate 50 expressing qnr B19 gene after 24 hrs by twofold serial dilution method", "settings": "Escherichia coli, isolate 50, 24 h"}, "Staphylococcus aureus": {"tested_on": "Staphylococcus aureus", "assay": "Antibacterial activity against Staphylococcus aureus after 24 hrs by twofold serial dilution method", "settings": "Staphylococcus aureus, 24 h"}, "Escherichia coli [9]": {"tested_on": "Escherichia coli", "assay": "Antibacterial activity against Escherichia coli HB101 after 24 hrs by twofold serial dilution method", "settings": "Escherichia coli, HB101, 24 h"}, "Klebsiella pneumoniae [10]": {"tested_on": "Klebsiella pneumoniae", "assay": "Antibacterial activity against Klebsiella pneumoniae isolate 173 after 24 hrs by twofold serial dilution method", "settings": "Klebsiella pneumoniae, isolate 173, 24 h"}, "Klebsiella pneumoniae [11]": {"tested_on": "Klebsiella pneumoniae", "assay": "Antibacterial activity against Klebsiella pneumoniae isolate 16 expressing qnr B19 gene, GyrA D87G mutant after 24 hrs by twofold serial dilution method", "settings": "isolate 16, 24 h"}, "Escherichia coli [12]": {"tested_on": "Escherichia coli", "assay": "Antibacterial activity against Escherichia coli isolate 21 after 24 hrs by twofold serial dilution method", "settings": "Escherichia coli, isolate 21, 24 h"}, "Escherichia coli [13]": {"tested_on": "Escherichia coli", "assay": "Antibacterial activity against Escherichia coli isolate 13 after 24 hrs by twofold serial dilution method", "settings": "Escherichia coli, isolate 13, 24 h"}, "Escherichia coli [14]": {"tested_on": "Escherichia coli", "assay": "Antibacterial activity against Escherichia coli JM109 after 24 hrs by twofold serial dilution method", "settings": "Escherichia coli, JM109, 24 h"}, "Escherichia coli [15]": {"tested_on": "Escherichia coli", "assay": "Antibacterial activity against Escherichia coli isolate 47 expressing qnr B19 gene after 24 hrs by twofold serial dilution method", "settings": "Escherichia coli, isolate 47, 24 h"}, "Klebsiella pneumoniae [16]": {"tested_on": "Klebsiella pneumoniae", "assay": "Antibacterial activity against Klebsiella pneumoniae isolate 204 expressing qnr B19 gene after 24 hrs by twofold serial dilution method", "settings": "Klebsiella pneumoniae, isolate 204, 24 h"}, "Escherichia coli [17]": {"tested_on": "Escherichia coli", "assay": "Antibacterial activity against Escherichia coli isolate 191 expressing qnr S1 gene after 24 hrs by twofold serial dilution method", "settings": "Escherichia coli, isolate 191, 24 h"}, "Escherichia coli [18]": {"tested_on": "Escherichia coli", "assay": "Antibacterial activity against Escherichia coli Top10 after 24 hrs by twofold serial dilution method", "settings": "Escherichia coli, Top10, 24 h"}, "Klebsiella pneumoniae [19]": {"tested_on": "Klebsiella pneumoniae", "assay": "Antibacterial activity against Klebsiella pneumoniae isolate 134 after 24 hrs by twofold serial dilution method", "settings": "Klebsiella pneumoniae, isolate 134, 24 h"}, "Escherichia coli [20]": {"tested_on": "Escherichia coli", "assay": "Antibacterial activity against Escherichia coli isolate 7 after 24 hrs by twofold serial dilution method", "settings": "Escherichia coli, isolate 7, 24 h"}, "Klebsiella pneumoniae [21]": {"tested_on": "Klebsiella pneumoniae", "assay": "Antibacterial activity against Klebsiella pneumoniae isolate 5 expressing qnr B19 gene, GyrA D87G mutant after 24 hrs by twofold serial dilution method", "settings": "isolate 5, 24 h"}, "Escherichia coli [22]": {"tested_on": "Escherichia coli", "assay": "Antibacterial activity against Escherichia coli JM110 after 24 hrs by twofold serial dilution method", "settings": "Escherichia coli, JM110, 24 h"}, "Klebsiella pneumoniae [23]": {"tested_on": "Klebsiella pneumoniae", "assay": "Antibacterial activity against Klebsiella pneumoniae isolate 97 expressing qnr B19 gene after 24 hrs by twofold serial dilution method", "settings": "Klebsiella pneumoniae, isolate 97, 24 h"}, "Klebsiella pneumoniae [24]": {"tested_on": "Klebsiella pneumoniae", "assay": "Antibacterial activity against Klebsiella pneumoniae isolate 370 expressing qnr B19 gene, GyrA D87G mutant after 24 hrs by twofold serial dilution method", "settings": "isolate 370, 24 h"}, "Escherichia coli [25]": {"tested_on": "Escherichia coli", "assay": "Antibacterial activity against Escherichia coli XL-1Blue after 24 hrs by twofold serial dilution method", "settings": "Escherichia coli, XL-1Blue, 24 h"}, "Escherichia coli [26]": {"tested_on": "Escherichia coli", "assay": "Antibacterial activity against Escherichia coli isolate 95 expressing GyrA S83L mutant after 24 hrs by twofold serial dilution method", "settings": "isolate 95, 24 h"}, "Klebsiella pneumoniae [27]": {"tested_on": "Klebsiella pneumoniae", "assay": "Antibacterial activity against Klebsiella pneumoniae isolate 92 after 24 hrs by twofold serial dilution method", "settings": "Klebsiella pneumoniae, isolate 92, 24 h"}, "Escherichia coli [28]": {"tested_on": "Escherichia coli", "assay": "Antibacterial activity against Escherichia coli isolate 115 expressing GyrA S83L mutant after 24 hrs by twofold serial dilution method", "settings": "isolate 115, 24 h"}, "Escherichia coli [29]": {"tested_on": "Escherichia coli", "assay": "Antibacterial activity against Escherichia coli isolate 41 after 24 hrs by twofold serial dilution method", "settings": "Escherichia coli, isolate 41, 24 h"}}}
{"compound": "O=C(O)c1cn(C2CC2)c2cc(N3CCNCC3)c(F)cc2c1=O", "note": "[CIPROFLOXACIN]", "values": [{"measurement": "MIC90", "setting": "Klebsiella pneumoniae [1]", "value": "> 4", "unit": "µg/mL"}, {"measurement": "MIC90", "setting": "Klebsiella pneumoniae [2]", "value": "< 0.25", "unit": "µg/mL"}, {"measurement": "MIC90", "setting": "Escherichia coli [3]", "value": "< 0.25", "unit": "µg/mL"}, {"measurement": "MIC90", "setting": "Klebsiella pneumoniae [4]", "value": "> 4", "unit": "µg/mL"}, {"measurement": "MIC90", "setting": "Klebsiella pneumoniae [5]", "value": "< 0.25", "unit": "µg/mL"}, {"measurement": "MIC90", "setting": "Escherichia coli [6]", "value": "> 4", "unit": "µg/mL"}, {"measurement": "MIC90", "setting": "Escherichia coli [7]", "value": 0.5, "unit": "µg/mL"}, {"measurement": "MIC90", "setting": "Escherichia coli [8]", "value": "< 0.25", "unit": "µg/mL"}, {"measurement": "MIC90", "setting": "Staphylococcus aureus", "value": "> 4", "unit": "µg/mL"}, {"measurement": "MIC90", "setting": "Escherichia coli [9]", "value": "< 0.25", "unit": "µg/mL"}, {"measurement": "MIC90", "setting": "Klebsiella pneumoniae [10]", "value": "> 4", "unit": "µg/mL"}, {"measurement": "MIC90", "setting": "Klebsiella pneumoniae [11]", "value": 2, "unit": "µg/mL"}, {"measurement": "MIC90", "setting": "Escherichia coli [12]", "value": 4, "unit": "µg/mL"}, {"measurement": "MIC90", "setting": "Escherichia coli [13]", "value": "> 4", "unit": "µg/mL"}, {"measurement": "MIC90", "setting": "Escherichia coli [14]", "value": "> 4", "unit": "µg/mL"}, {"measurement": "MIC90", "setting": "Escherichia coli [15]", "value": "< 0.25", "unit": "µg/mL"}, {"measurement": "MIC90", "setting": "Klebsiella pneumoniae [16]", "value": 0.75, "unit": "µg/mL"}, {"measurement": "MIC90", "setting": "Escherichia coli [17]", "value": 1, "unit": "µg/mL"}, {"measurement": "MIC90", "setting": "Escherichia coli [18]", "value": "< 0.25", "unit": "µg/mL"}, {"measurement": "MIC90", "setting": "Klebsiella pneumoniae [19]", "value": "< 0.25", "unit": "µg/mL"}, {"measurement": "MIC90", "setting": "Escherichia coli [20]", "value": "> 4", "unit": "µg/mL"}, {"measurement": "MIC90", "setting": "Klebsiella pneumoniae [21]", "value": "< 0.25", "unit": "µg/mL"}, {"measurement": "MIC90", "setting": "Escherichia coli [22]", "value": "> 4", "unit": "µg/mL"}, {"measurement": "MIC90", "setting": "Klebsiella pneumoniae [23]", "value": "< 0.25", "unit": "µg/mL"}, {"measurement": "MIC90", "setting": "Klebsiella pneumoniae [24]", "value": "> 4", "unit": "µg/mL"}, {"measurement": "MIC90", "setting": "Escherichia coli [25]", "value": "> 4", "unit": "µg/mL"}, {"measurement": "MIC90", "setting": "Escherichia coli [26]", "value": 1, "unit": "µg/mL"}, {"measurement": "MIC90", "setting": "Klebsiella pneumoniae [27]", "value": "< 0.25", "unit": "µg/mL"}, {"measurement": "MIC90", "setting": "Escherichia coli [28]", "value": 0.5, "unit": "µg/mL"}, {"measurement": "MIC90", "setting": "Escherichia coli [29]", "value": "< 0.25", "unit": "µg/mL"}]}
